Values after ≈ are worked out from the molar mass of the structure shown. Read-outs that look alike come from different tables or passages of the source. *1 amine or outer side, *2 acyl side, *3 side chain or, on linkers, in order; H or OH if unused. Where a SMILES comes first, the peptide text is derived from it. Bridges are numbered along the chain shown (N, C = ends). [ ]: non-standard residue; d: D form. The star is where a group is joined. ξ: configuration not given here. NH(1,3-benzodioxol-5-yl) = c1cc2c(cc1N*)OCO2; Phe(3,5-F2) = N[C@@H](Cc1cc(F)cc(F)c1)C(=O)O; NH(4-OCF3-phenyl) = FC(F)(F)Oc1ccc(N*)cc1; Pro(4S-Me) = C[C@@H]1CN[C@H](C(=O)O)C1; Pro(4R-Me) = C[C@H]1CN[C@H](C(=O)O)C1; ξPro(4S-Me) = C[C@@H]1CNC(C(=O)O)C1; ξPro(4R-Me) = C[C@H]1CNC(C(=O)O)C1; Hyp = O=C(O)[C@@H]1C[C@@H](O)CN1; NH(4-Me-phenyl) = Cc1ccc(N*)cc1; aThr = C[C@H](O)[C@H](N)C(=O)O; X5 = O=C(C1COCCN1[*:1])[*:2]; X12 = c1nc2ccc(N*)cc2[nH]1; Pip = O=C(O)[C@@H]1CCCCN1; NMeA = CN[C@@H](C)C(=O)O; CO = O=C([*:1])[*:2]; ξP = O=C(O)C1CCCN1
What was measured:
Type in all cases: cell-based
[1] = system: Bacillus subtilis, ATCC 23857; assay: Minimal inhibitory concentration assay (microbroth dilution)
Protocol: (§1) It is understood, that in various aspects, the MIC is determined by a microbroth dilution method. In a further aspect, the MIC is determined by a microbroth dilution method using Staphylococcus aureus, ATCC 29213. In a still further aspect, the MIC is determined by a microbroth dilution method using Staphylococcus aureus, NRS70. In a yet further aspect, the MIC is determined by a microbroth dilution method using Streptococcus pyogenes, ATCC 700294. In an even further aspect, the MIC is determined by a microbroth dilution method using Streptococcus pneumoniae, DAW27. In a still further aspect, the MIC is determined by a microbroth dilution method using Bacillus subtilis, ATCC 23857. In a yet further aspect, the MIC is determined by a microbroth dilution method using Enterococcus faecalis, ATCC 33186. In an even further aspect, the MIC is determined using Staphylococcus aureus, USA 300. In a still further aspect, the MIC is determined using Streptococcus pneumoniae, R6. In a further aspect, the MIC is determined using Staphylococcus aureus, USA 300 and compared to the MIC determined using Staphylococcus aureus, USA 300 wherein ClpP is inactivated, thus allowing confirmation that killing is via a ClpP-dependent pathway.
(§2) Minimal inhibitory concentrations (“MICs”) were determined using the microbroth dilution method according to Clinical Laboratory Standards Institute (CLSI; National, C.F. C. L. S., Methods for Dilution Antimicrobial Susceptibility Tests for Bacteria Grow aerobically-Seventh Edition: Approved Standard M7-A7, CLSI, Wayne, Pa., USA, 2008) and were read by visual inspection. Two fold serial dilutions of test compound in 100 μL of the appropriate broth media were first prepared in 96-well round bottom microtiter plates (Nalgene Nunc International, Rochester, N.Y., USA). An equivalent volume (100 μL) of bacterial broth inocula containing approximately 10^5 bacterial cfu/mL was added to each well to give final concentrations of test compound starting at 200 μM. The plates were then incubated aerobically at 37° C. All strains were incubated overnight. After incubations, in all cases the MIC was recorded as the lowest concentration of drug that prevented bacterial growth. The bacterial strains for which MIC was determined as described in Table 4.

[2] = system: Enterococcus faecalis, ATCC 33186; assay: as above
Protocol: as §1, §2

[3] = system: Staphylococcus aureus, ATCC 29213; assay: as above; details: ATCC29213, read-out: Minimal Inhibitory Concentrations S. aureus ATCC 29213
Protocol: as §1, §2

[4] = system: Staphylococcus aureus, NRS70; assay: as above
Protocol: as §1, §2

[5] = system: Streptococcus pyogenes, ATCC 700294; assay: as above
Protocol: as §1
Minimal inhibitory concentrations (“MICs”) were determined using the microbroth dilution method according to Clinical Laboratory Standards Institute (CLSI; National, C.F. C. L. S., Methods for Dilution Antimicrobial Susceptibility Tests for Bacteria Grow aerobically-Seventh Edition: Approved Standard M7-A7, CLSI, Wayne, Pa., USA, 2008) and were read by visual inspection. Two fold serial dilutions of test compound in 100 μL of the appropriate broth media were first prepared in 96-well round bottom microtiter plates (Nalgene Nunc International, Rochester, N.Y., USA). […] The plates were then incubated aerobically at 37° C. All strains were incubated overnight. After incubations, in all cases the MIC was recorded as the lowest concentration of drug that prevented bacterial growth. The bacterial strains for which MIC was determined as described in Table 4.

[6] = system: Staphylococcus aureus, USA 300 wherein ClpP is inactivated; assay: Minimal inhibitory concentration assay
Protocol: as §1, §2

[7] = system: Staphylococcus aureus, USA 300; assay: Minimal inhibitory concentration assay; details: USA300, read-out: Minimal Inhibitory Concentrations S. aureus USA 300
Protocol: as §1, §2

[8] = system: Streptococcus pneumoniae, R6; assay: Minimal inhibitory concentration assay; details: read-out: Minimal Inhibitory Concentrations S. pneumoniae R6
Protocol: It is understood, that in various aspects, the MIC is determined by a microbroth dilution method. […] In a still further aspect, the MIC is determined by a microbroth dilution method using Staphylococcus aureus, NRS70. […] In an even further aspect, the MIC is determined by a microbroth dilution method using Streptococcus pneumoniae, DAW27. […] In an even further aspect, the MIC is determined using Staphylococcus aureus, USA 300. In a still further aspect, the MIC is determined using Streptococcus pneumoniae, R6. In a further aspect, the MIC is determined using Staphylococcus aureus, USA 300 and compared to the MIC determined using Staphylococcus aureus, USA 300 wherein ClpP is inactivated, thus allowing confirmation that killing is via a ClpP-dependent pathway.
Two fold serial dilutions of test compound in 100 μL of the appropriate broth media were first prepared in 96-well round bottom microtiter plates (Nalgene Nunc International, Rochester, N.Y., USA). […] The plates were then incubated aerobically at 37° C. All strains were incubated overnight. After incubations, in all cases the MIC was recorded as the lowest concentration of drug that prevented bacterial growth. The bacterial strains for which MIC was determined as described in Table 4.

[9] = Bacillus subtilis, ATCC23857; read-out: Minimal Inhibitory Concentrations B. subtilis ATCC 23857
[10] = Enterococcus faecalis, ATCC33186; read-out: Minimal Inhibitory Concentrations E. faecalis ATCC 33186
[11] = Staphylococcus aureus, NRS70; read-out: Minimal Inhibitory Concentrations S. aureus NRS70
[12] = Streptococcus pyogenes, ATCC700294; read-out: Minimal Inhibitory Concentrations S. pyogenes ATCC 700294
[13] = Bacillus subtilis, ATCC23857, read-out: Minimal Inhibitory Concentrations B. subtilis ATCC 23857
[14] = Staphylococcus aureus, NRS70, read-out: Minimal Inhibitory Concentrations S. aureus NRS70
[15] = Streptococcus pyogenes, ATCC700294, read-out: Minimal Inhibitory Concentrations S. pyogenes ATCC 700294

SMILES	MIC [1, 9]	MIC [2, 10]	MIC [3]	MIC [4, 11]	MIC [5, 12]	Minimal Inhibitory Concentrations S. aureus USA 300 ΔClpP [6]	MIC [7]	MIC [8]	MIC [1, 13]	MIC [4, 14]	MIC [5, 15]	MIC ([2]; Enterococcus faecalis, ATCC33186, read-out: Minimal Inhibitory Concentrations E. faecalis ATCC 33186)
C[C@@H]1NC(=O)[C@@H]2CCCCN2C(=O)[C@@H]2CCCN2C(=O)[C@@H](NC(=O)[C@H](Cc2cc(F)cc(F)c2)NC(=O)Nc2ccc3c(c2)OCO3)[C@H](C)OC(=O)[C@@H]2CCCN2C1=O [Compound 17, (S)-2-(3-(benzo[d][1,3]dioxol-5-yl)ureido)-3-(3,5-difluorophenyl)-N-((6S,8aS,14aS,20S,21S,23aS)-6,21-dimethyl-5,8,14,19,23-pentaoxooctadecahydro-1H,5H,14H,19H-pyrido[2,1-i]dipyrrolo[2,1-c:2′,1′-l][1]oxa[4,7,10,13]tetraazacyclohexadecin-20-yl)propanamide] ({NH(1,3-benzodioxol-5-yl)-CO}-[Phe(3,5-F2)][aThr]P[Pip]AP; ester 2-C)	0.4 µM (≈ 0.33 µg/mL)	< 0.1 µM	3.1 µM (≈ 2.55 µg/mL)	3.1 µM (≈ 2.55 µg/mL)	1.5 µM (≈ 1.24 µg/mL)	200 µM	3.1 µM (≈ 2.55 µg/mL)					
C[C@H]1C[C@H]2C(=O)O[C@@H](C)[C@H](NC(=O)[C@H](Cc3cc(F)cc(F)c3)NC(=O)Nc3ccc4c(c3)OCO4)C(=O)N3CCC[C@H]3C(=O)N3CCCC[C@H]3C(=O)N[C@@H](C)C(=O)N2C1 [Compound 20, (S)-2-(3-(benzo[d][1,3]dioxol-5-yl)ureido)-3-(3,5-difluorophenyl)-N-((2R,6S,8aS,14aS,20S,21S,23aS)-2,6,21-trimethyl-5,8,14,19,23-pentaoxooctadecahydro-1H,5H,14H,19H-pyrido[2,1-i]dipyrrolo[2,1-c:2′,1′-l][1]oxa[4,7,10,13]tetraazacyclohexadecin-20-yl)propanamide] ({NH(1,3-benzodioxol-5-yl)-CO}-[Phe(3,5-F2)][aThr]P[Pip]A[Pro(4S-Me)]; ester 2-C)	< 0.1 µM	< 0.1 µM	0.8 µM (≈ 0.67 µg/mL)	0.4 µM (≈ 0.335 µg/mL)	0.4 µM (≈ 0.335 µg/mL)	200 µM	0.8 µM (≈ 0.67 µg/mL)					
C[C@H]1CC2C(=O)O[C@@H](C)[C@H](NC(=O)[C@H](Cc3cc(F)cc(F)c3)NC(=O)Nc3ccc(OC(F)(F)F)cc3)C(=O)N3CCCC3C(=O)N(C)[C@@H](C)C(=O)N[C@@H](C)C(=O)N2C1 (stereo partly drawn) [Compound 28, (2S)-3-(3,5-difluorophenyl)-N-((2S,6S,9S,11aS,17S,18S)-2,6,9,10,18-pentamethyl-5,8,11,16,20-pentaoxohexadecahydro-1H,5H,16H-dipyrrolo[2,1-c:2′,1′-l][1]oxa[4,7,10,13]tetraazacyclohexadecin-17-yl)-2-(3-(4-(trifluoromethoxy)phenyl)ureido)propanamide] ({NH(4-OCF3-phenyl)-CO}-[Phe(3,5-F2)][aThr][ξP][NMeA]A[ξPro(4S-Me)]; ester 2-C)	0.01 µM (≈ 0.00852 µg/mL)		0.05 µM (≈ 0.0426 µg/mL)	0.05 µM (≈ 0.0426 µg/mL)	0.23 µM (≈ 0.196 µg/mL)		0.1 µM (≈ 0.0852 µg/mL)	0.029 µM (≈ 0.0247 µg/mL)				
Cc1ccc(NC(=O)N[C@@H](Cc2cc(F)cc(F)c2)C(=O)N[C@@H]2C(=O)N3CCCC3C(=O)N3CCOCC3C(=O)N[C@@H](C)C(=O)N3C[C@H](C)CC3C(=O)O[C@H]2C)cc1 (stereo partly drawn) [Compound 47, (S)-3-(3,5-difluorophenyl)-2-(3-(p-tolyl)ureido)-N-((6aS,12S,13S,15aS,17R,21S,23aS)-13,17,21-trimethyl-6,11,15,20,23-pentaoxooctadecahydro-6H,11H,15H-[1,4]oxazino[3,4-i]dipyrrolo[2,1-c:2′,1′-l][1]oxa[4,7,10,13]tetraazacyclohexadecin-12-yl)propanamide] ({NH(4-Me-phenyl)-CO}-[Phe(3,5-F2)][aThr][ξP][X5]A[ξPro(4R-Me)]; ester 2-C)			0.003 µM (≈ 0.00243 µg/mL)			>200 µM	0.01 µM (≈ 0.0081 µg/mL)	0.002 µM (≈ 0.00162 µg/mL)	0.8 µM (≈ 0.648 µg/mL)	0.0002 µM (≈ 0.000162 µg/mL)	0.02 µM (≈ 0.0162 µg/mL)	
Cc1ccc(NC(=O)N[C@@H](Cc2cc(F)cc(F)c2)C(=O)N[C@@H]2C(=O)N3C[C@H](O)C[C@H]3C(=O)N3CCCC[C@H]3C(=O)N[C@@H](C)C(=O)N3C[C@H](C)C[C@H]3C(=O)O[C@H]2C)cc1 [Compound 216, (S)-3-(3,5-difluorophenyl)-N-((2R,6S,8aS,14aS,16R,20S,21S,23aS)-16-hydroxy-2,6,21-trimethyl-5,8,14,19,23-pentaoxooctadecahydro-1H,5H,14H,19H-pyrido[2,1-i]dipyrrolo[2,1-c:2′,1′-l][1]oxa[4,7,10,13]tetraazacyclohexadecin-20-yl)-2-(3-(p-tolyl)ureido)propanamide] ({NH(4-Me-phenyl)-CO}-[Phe(3,5-F2)][aThr][Hyp][Pip]A[Pro(4R-Me)]; ester 2-C)							0.1 µM (≈ 0.0824 µg/mL)	0.001 µM (≈ 0.000824 µg/mL)	0.2 µM (≈ 0.165 µg/mL)	0.2 µM (≈ 0.165 µg/mL)	0.2 µM (≈ 0.165 µg/mL)	
C[C@@H]1C[C@H]2C(=O)O[C@@H](C)[C@H](NC(=O)[C@H](Cc3cc(F)cc(F)c3)NC(=O)Nc3ccc4nc[nH]c4c3)C(=O)N3CCC[C@H]3C(=O)N3CCCC[C@H]3C(=O)N[C@@H](C)C(=O)N2C1 [Compound 303, (S)-2-(3-(1H-benzo[d]imidazol-6-yl)ureido)-3-(3,5-difluorophenyl)-N-((2R,6S,8aS,14aS,20S,21S,23aS)-2,6,21-trimethyl-5,8,14,19,23-pentaoxooctadecahydro-1H,5H,14H,19H-pyrido[2,1-i]dipyrrolo[2,1-c:2′,1′-l][1]oxa[4,7,10,13]tetraazacyclo-hexadecin-20-yl)propanamide] ({X12-CO}-[Phe(3,5-F2)][aThr]P[Pip]A[Pro(4R-Me)]; ester 2-C)			20 µM (≈ 16.7 µg/mL)			>20 µM	15.1 µM (≈ 12.6 µg/mL)			10.1 µM (≈ 8.42 µg/mL)		2.5 µM (≈ 2.08 µg/mL)
